{"source": "patent US9650616B2", "about": "“Methods for increasing grain yield” (University of Florida Research Foundation, Inc., priority 2014, dated 2017)", "key": {"[1]": {"target": "T1, maize endosperm AGPase, large subunit variant RGRR (Q96R, D161G, A443R, S444R; numbering of SEQ ID NO: 20) (Zea mays, UniProt P55241+Q84PF5, A443R/D161G/Q96R/S444R)", "T1 sequence (P55241 46-516 A443R/D161G/Q96R/S444R)": "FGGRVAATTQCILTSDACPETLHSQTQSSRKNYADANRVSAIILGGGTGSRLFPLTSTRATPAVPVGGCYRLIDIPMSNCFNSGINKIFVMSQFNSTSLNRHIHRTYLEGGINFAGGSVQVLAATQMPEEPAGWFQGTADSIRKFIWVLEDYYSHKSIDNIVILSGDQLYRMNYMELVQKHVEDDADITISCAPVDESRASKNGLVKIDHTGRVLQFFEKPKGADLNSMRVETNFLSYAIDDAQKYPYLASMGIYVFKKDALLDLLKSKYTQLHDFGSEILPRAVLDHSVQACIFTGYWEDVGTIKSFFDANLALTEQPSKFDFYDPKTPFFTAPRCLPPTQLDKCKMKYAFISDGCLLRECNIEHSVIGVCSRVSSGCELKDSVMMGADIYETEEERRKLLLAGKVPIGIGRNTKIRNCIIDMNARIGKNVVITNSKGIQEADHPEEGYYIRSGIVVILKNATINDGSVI", "T1 sequence (Q84PF5 1-474)": "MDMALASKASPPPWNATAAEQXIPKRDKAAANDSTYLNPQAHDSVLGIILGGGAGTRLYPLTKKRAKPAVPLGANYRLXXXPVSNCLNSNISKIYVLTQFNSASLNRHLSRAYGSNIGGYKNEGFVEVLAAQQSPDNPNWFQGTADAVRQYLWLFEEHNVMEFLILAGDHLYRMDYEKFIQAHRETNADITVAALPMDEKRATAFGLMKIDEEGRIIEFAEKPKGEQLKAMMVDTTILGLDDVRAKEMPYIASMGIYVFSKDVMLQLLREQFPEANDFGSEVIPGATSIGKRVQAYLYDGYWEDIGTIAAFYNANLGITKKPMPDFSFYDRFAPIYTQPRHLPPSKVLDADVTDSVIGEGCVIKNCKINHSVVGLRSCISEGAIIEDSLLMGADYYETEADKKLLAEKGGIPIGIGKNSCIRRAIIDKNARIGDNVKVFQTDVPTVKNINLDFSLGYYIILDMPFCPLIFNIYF", "assay": "Apparent kinetic constants with 3-PGA, 37° C., RGRR", "assay_type": "biochemical", "details": "read-out: ATP Km", "from_the_text": "The small and large subunit plasmids of maize endosperm AGPase (pMONcBt2 and pMONcSh2, respectively) (Giroux et al., 1996) were expressed in E. coli AC70R1-504 cells (Iglesias et al., 1993) as previously described (Boehlein et al., 2008).\nAn endpoint assay was used to determine the rate of the AGPase reaction by coupling the formation of PPi to a decrease in NADH concentration (Boehlein et al., 2008). […] The Michaelis constants (Km) were obtained by varying one substrate in the presence of saturating concentrations of the second substrate. The activation constants were obtained by varying the activator at fixed levels of both substrates. All reactions were performed at 37° C. and mixes were prewarmed before starting the reaction with enzyme. […] The absorbance at 340 nm was monitored after 30 min and the amount of PPi produced was determined from a standard curve using PPi in complete reaction mixtures lacking AGPase. Blank samples contained complete reaction mixtures without enzyme and the change in absorbance between the blank and the reaction was used to calculate the amount of PPi produced. […]\nThe apparent Michaelis constant and maximum velocity of each reaction was calculated from a V vs. S plots using nonlinear regression analysis and the following equation, v=VmaxS/(Km+S), where v is the measured velocity, Vmax is the maximum velocity, S is the substrate concentration. […]"}, "[2]": {"system": "maize endosperm AGPase, wild type", "details": "Maize wt, presence of 3-PGA, ATP varied, Pi inhibition, P-MT; read-out: Km (ATP); cited from earlier work"}}, "data": [{"smiles": "Nc1ncnc2c1ncn2[C@@H]1O[C@H](COP(=O)(O)OP(=O)(O)OP(=O)(O)O)[C@@H](O)[C@H]1O", "note": "[ATP]", "values": [{"measurement": "Km", "setting": "[1]", "result": 38, "unit": "µM"}, {"measurement": "Km", "setting": "[2]", "result": 110, "unit": "µM"}]}]}
